Laboratory results from patent publication US10442807B2, “Aryl substituted bicyclic compounds as herbicides” (FMC Corporation, priority 2015, dated 2019).

Legend:
Assay type in all cases: in vivo
[1] = tested on: galium (catchweed bedstraw, Galium aparine); experiment: Test A postemergence application, visual injury rating; details: approx. 10 d, 0 = no effect, 100 = complete control
Method in brief: (§1)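 Rated visually against untreated controls after approx. 10 d in greenhouse, scale 0 = no effect, 100 = complete control. Seeded loam/sand blend given directed soil spray preemergence, or plants sprayed at one- to two-leaf stage, 2-10 cm tall; surfactant-containing non-phytotoxic solvent formulation.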

[2] = tested on: ryegrass, Italian (Italian ryegrass, Lolium multiflorum); experiment: as above; details: approx. 10 d, 0 = no effect, 100 = complete control
Method in brief: as §1

[3] = tested on: pigweed (Amaranthus retroflexus); experiment: as above; details: approx. 10 d, 0 = no effect, 100 = complete control
Method in brief: as §1

[4] = tested on: wheat (Triticum aestivum); experiment: as above; details: approx. 10 d, 0 = no effect, 100 = complete control
Method in brief: as §1

[5] = tested on: corn (Zea mays); experiment: as above; details: approx. 10 d, 0 = no effect, 100 = complete control
Method in brief: as §1

[6] = tested on: barnyardgrass (Echinochloa crus-galli); experiment: as above; details: approx. 10 d, 0 = no effect, 100 = complete control
Method in brief: as §1

[7] = tested on: foxtail, giant (giant foxtail, Setaria faberii); experiment: as above; details: approx. 10 d, 0 = no effect, 100 = complete control
Method in brief: as §1

[8] = tested on: kochia (Kochia scoparia); experiment: as above; details: approx. 10 d, 0 = no effect, 100 = complete control
Method in brief: as §1

[9] = tested on: blackgrass (Alopecurus myosuroides); experiment: as above; details: approx. 10 d, 0 = no effect, 100 = complete control
Method in brief: as §1

[10] = tested on: ragweed (common ragweed, Ambrosia elation); experiment: as above; details: approx. 10 d, 0 = no effect, 100 = complete control
Method in brief: as §1

[11] = tested on: ryegrass, Italian (Italian ryegrass, Lolium multiflorum); experiment: Test A preemergence, directed soil spray, visual injury rating; details: approx. 10 d, 0 = no effect, 100 = complete control
Method in brief: as §1

[12] = tested on: pigweed (Amaranthus retroflexus); experiment: as above; details: approx. 10 d, 0 = no effect, 100 = complete control
Method in brief: as §1

[13] = tested on: barnyardgrass (Echinochloa crus-galli); experiment: as above; details: approx. 10 d, 0 = no effect, 100 = complete control
Method in brief: as §1

[14] = tested on: foxtail, giant (giant foxtail, Setaria faberii); experiment: as above; details: approx. 10 d, 0 = no effect, 100 = complete control
Method in brief: as §1

[15] = tested on: kochia (Kochia scoparia); experiment: as above; details: approx. 10 d, 0 = no effect, 100 = complete control
Method in brief: as §1

[16] = tested on: ragweed (common ragweed, Ambrosia elation); experiment: as above; details: approx. 10 d, 0 = no effect, 100 = complete control
Method in brief: as §1

[17] = tested on: sedge, umbrella (small-flower umbrella sedge, Cyperus difformis); experiment: Test B flooded paddy test, visual plant response rating; details: 250 g ai/ha; applied to paddy water at 2-leaf stage; rated after 13 to 15 days; scale 0 to 100, 0 is no effect, 100 is complete control
Method in brief: (§2)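 Pots flooded to 3 cm above soil at treatment; compound applied directly into paddy water, depth held throughout. Greenhouse for 13 to 15 days, then visual rating versus untreated controls on a 0–100 scale (0 no effect, 100 complete control); dash means no result.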

[18] = tested on: barnyardgrass (Echinochloa crus-galli); experiment: as above; details: 250 g ai/ha; applied to paddy water at 2-leaf stage; rated after 13 to 15 days; scale 0 to 100, 0 is no effect, 100 is complete control
Method in brief: as §2

[19] = tested on: rice (Oryza sativa); experiment: as above; details: 250 g ai/ha; applied to paddy water at 2-leaf stage; rated after 13 to 15 days; scale 0 to 100, 0 is no effect, 100 is complete control
Method in brief: as §2

[20] = tested on: ducksalad (Heteranthera limosa); experiment: as above; details: 250 g ai/ha; applied to paddy water at 2-leaf stage; rated after 13 to 15 days; scale 0 to 100, 0 is no effect, 100 is complete control
Method in brief: as §2

| SMILES | Galium plant response rating (0 to 100 scale) ([1]; 125 g ai/ha) | Galium plant response rating (0 to 100 scale) ([1]; 500 g ai/ha) | Ryegrass, Italian plant response rating (0 to 100 scale) ([2]; 125 g ai/ha) | Ryegrass, Italian plant response rating (0 to 100 scale) ([2]; 500 g ai/ha) | Pigweed plant response rating (0 to 100 scale) ([3]; 125 g ai/ha) | Pigweed plant response rating (0 to 100 scale) ([3]; 500 g ai/ha) | Wheat plant response rating (0 to 100 scale) ([4]; 125 g ai/ha) | Wheat plant response rating (0 to 100 scale) ([4]; 500 g ai/ha) | Corn plant response rating (0 to 100 scale) ([5]; 125 g ai/ha) | Corn plant response rating (0 to 100 scale) ([5]; 500 g ai/ha) | Barnyardgrass plant response rating (0 to 100 scale) ([6]; 125 g ai/ha) | Barnyardgrass plant response rating (0 to 100 scale) ([6]; 500 g ai/ha) | Foxtail, Giant plant response rating (0 to 100 scale) ([7]; 125 g ai/ha) | Foxtail, Giant plant response rating (0 to 100 scale) ([7]; 500 g ai/ha) | Kochia plant response rating (0 to 100 scale) ([8]; 125 g ai/ha) | Kochia plant response rating (0 to 100 scale) ([8]; 500 g ai/ha) | Blackgrass plant response rating (0 to 100 scale) ([9]; 125 g ai/ha) | Blackgrass plant response rating (0 to 100 scale) ([9]; 500 g ai/ha) | Ragweed plant response rating (0 to 100 scale) ([10]; 125 g ai/ha) | Ragweed plant response rating (0 to 100 scale) ([10]; 500 g ai/ha) | further results |
| --- | --- | --- | --- | --- | --- | --- | --- | --- | --- | --- | --- | --- | --- | --- | --- | --- | --- | --- | --- | --- | --- |
| CCc1ccc(C2Cn3cnnc3C2C(=O)Nc2ccccc2SC)cc1 (stereo not drawn) [Compound 25] | 0 | 0 | 0 | 0 | 0 | 0 | 0 | 0 | 0 | 0 | 20 | 30 | 0 | 30 | 30 | 30 | 0 | 0 | 0 | 0 | Ryegrass, Italian plant response rating (0 to 100 scale) ([11]; 125 g ai/ha): 0; Ryegrass, Italian plant response rating (0 to 100 scale) ([11]; 500 g ai/ha): 0; Pigweed plant response rating (0 to 100 scale) ([12]; 125 g ai/ha): 0; Pigweed plant response rating (0 to 100 scale) ([12]; 500 g ai/ha): 0; Barnyardgrass plant response rating (0 to 100 scale) ([13]; 125 g ai/ha): 0; Barnyardgrass plant response rating (0 to 100 scale) ([13]; 500 g ai/ha): 40; Foxtail, Giant plant response rating (0 to 100 scale) ([14]; 125 g ai/ha): 0; Foxtail, Giant plant response rating (0 to 100 scale) ([14]; 500 g ai/ha): 40; Kochia plant response rating (0 to 100 scale) ([15]; 125 g ai/ha): 0; Kochia plant response rating (0 to 100 scale) ([15]; 500 g ai/ha): 20; Ragweed plant response rating (0 to 100 scale) ([16]; 125 g ai/ha): 0; Ragweed plant response rating (0 to 100 scale) ([16]; 500 g ai/ha): 0; Plant response rating, Flood, Sedge, Umbrella [17]: 0; Plant response rating, Flood, Barnyardgrass [18]: 0; Plant response rating, Flood, Rice [19]: 0; Plant response rating, Flood, Ducksalad [20]: 65 |
| Cc1ccc(C2Cn3cnnc3C2C(=O)Nc2cccc(F)c2C)cc1C (stereo not drawn) [Compound 26] | 30 | 0 | 0 | 20 | 0 | 0 | 30 | 0 | 20 | 0 | 50 | 80 | 50 | 80 | 0 | 0 | 0 | 50 | 0 | 0 | Ryegrass, Italian plant response rating (0 to 100 scale) ([11]; 125 g ai/ha): 0; Ryegrass, Italian plant response rating (0 to 100 scale) ([11]; 500 g ai/ha): 50; Pigweed plant response rating (0 to 100 scale) ([12]; 125 g ai/ha): 0; Pigweed plant response rating (0 to 100 scale) ([12]; 500 g ai/ha): 0; Barnyardgrass plant response rating (0 to 100 scale) ([13]; 125 g ai/ha): 60; Barnyardgrass plant response rating (0 to 100 scale) ([13]; 500 g ai/ha): 90; Foxtail, Giant plant response rating (0 to 100 scale) ([14]; 125 g ai/ha): 80; Foxtail, Giant plant response rating (0 to 100 scale) ([14]; 500 g ai/ha): 90; Kochia plant response rating (0 to 100 scale) ([15]; 125 g ai/ha): 20; Kochia plant response rating (0 to 100 scale) ([15]; 500 g ai/ha): 30; Ragweed plant response rating (0 to 100 scale) ([16]; 125 g ai/ha): 0; Ragweed plant response rating (0 to 100 scale) ([16]; 500 g ai/ha): 0; Plant response rating, Flood, Sedge, Umbrella [17]: 0; Plant response rating, Flood, Barnyardgrass [18]: 0; Plant response rating, Flood, Rice [19]: 20; Plant response rating, Flood, Ducksalad [20]: 85 |
| Cc1ccc(C2Cn3c(C)nnc3C2C(=O)Nc2ccccc2F)cc1 (stereo not drawn) [Compound 27] | 0 | 40 | 0 | 30 | 0 | 0 | 0 | 0 | 0 | 0 | 40 | 90 | 30 | 90 | 0 | 0 | 0 | 20 | 0 | 0 | Ryegrass, Italian plant response rating (0 to 100 scale) ([11]; 125 g ai/ha): 20; Ryegrass, Italian plant response rating (0 to 100 scale) ([11]; 500 g ai/ha): 20; Pigweed plant response rating (0 to 100 scale) ([12]; 125 g ai/ha): 0; Pigweed plant response rating (0 to 100 scale) ([12]; 500 g ai/ha): 0; Barnyardgrass plant response rating (0 to 100 scale) ([13]; 125 g ai/ha): 0; Barnyardgrass plant response rating (0 to 100 scale) ([13]; 500 g ai/ha): 90; Foxtail, Giant plant response rating (0 to 100 scale) ([14]; 125 g ai/ha): 80; Foxtail, Giant plant response rating (0 to 100 scale) ([14]; 500 g ai/ha): 90; Kochia plant response rating (0 to 100 scale) ([15]; 125 g ai/ha): 0; Kochia plant response rating (0 to 100 scale) ([15]; 500 g ai/ha): 0; Ragweed plant response rating (0 to 100 scale) ([16]; 125 g ai/ha): 0; Ragweed plant response rating (0 to 100 scale) ([16]; 500 g ai/ha): 0; Plant response rating, Flood, Sedge, Umbrella [17]: 0; Plant response rating, Flood, Barnyardgrass [18]: 0; Plant response rating, Flood, Rice [19]: 0; Plant response rating, Flood, Ducksalad [20]: 70 |
